Test results reported in BindingDB's records for doi:10.1021/jm00072a017 (Farmitalia Carlo Erba, 1993).

molecular target: T1, Thromboxane-A synthase (Rattus norvegicus, UniProt P49430); experiment: ChEBML_213089
T1 sequence (P49430 whole entry): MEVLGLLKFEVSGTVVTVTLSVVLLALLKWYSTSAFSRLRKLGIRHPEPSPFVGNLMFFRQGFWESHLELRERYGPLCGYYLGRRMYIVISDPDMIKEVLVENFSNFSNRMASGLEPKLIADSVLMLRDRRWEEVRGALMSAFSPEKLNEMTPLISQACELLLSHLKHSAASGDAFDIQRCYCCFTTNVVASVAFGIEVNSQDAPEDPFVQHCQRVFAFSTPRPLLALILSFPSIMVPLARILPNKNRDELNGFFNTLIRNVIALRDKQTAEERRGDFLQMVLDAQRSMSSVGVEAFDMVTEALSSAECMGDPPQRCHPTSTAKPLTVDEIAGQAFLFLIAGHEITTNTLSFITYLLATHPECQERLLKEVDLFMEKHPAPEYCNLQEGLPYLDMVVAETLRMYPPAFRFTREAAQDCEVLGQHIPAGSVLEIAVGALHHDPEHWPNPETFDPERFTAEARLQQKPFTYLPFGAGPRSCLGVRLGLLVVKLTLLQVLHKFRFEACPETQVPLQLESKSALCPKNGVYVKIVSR
Text: In vitro inhibition of thromboxane B2 production in rat whole blood.

Row | IC50 [µM] | Compound
1 | > 1 | CCOC(=O)C1=C(CC)N=C(CC)C(C(=O)OCC)C1c1cccc(-n2ccnc2)c1 (stereo unspecified) [2,6-Diethyl-4-(3-imidazol-1-yl-phenyl)-1,4-dihydro-pyridine-3,5-dicarboxylic acid diethyl ester]
2 | > 1 | CCOC(=O)C1C(C)=NC(C)=C(C(=O)OCCN(C)Cc2ccccc2)C1c1cccc(-c2cccnc2)c1 (stereo unspecified) [2,6-Dimethyl-4-(3-pyridin-3-yl-phenyl)-1,4-dihydro-pyridine-3,5-dicarboxylic acid 3-[2-(benzyl-methyl-amino)-ethyl] ester 5-ethyl ester]
3 | > 1 | CC1=NC(C)=C(C(=O)OCC(C)C)C(c2cccc(-c3cccnc3)c2)C1C(=O)OCC(C)C (stereo unspecified) [2,6-Dimethyl-4-(3-pyridin-3-yl-phenyl)-1,4-dihydro-pyridine-3,5-dicarboxylic acid diisobutyl ester]
4 | > 1 | CCOC(=O)C1=C(C)N=C(C)C(C(=O)OCC)C1c1ccccc1-n1ccnc1 (stereo unspecified) [4-(2-Imidazol-1-yl-phenyl)-2,6-dimethyl-1,4-dihydro-pyridine-3,5-dicarboxylic acid diethyl ester]
5 | > 1 | CCOC(=O)C1=C(C)N=C(C)C(C(=O)O)C1c1cccc(-n2ccnc2)c1 (stereo unspecified) [4-(3-Imidazol-1-yl-phenyl)-2,6-dimethyl-1,4-dihydro-pyridine-3,5-dicarboxylic acid monoethyl ester]
6 | > 1 | CCOC(=O)C1=C(C)N=C(C)C(C(=O)OCC)C1c1ccc(-n2ccnc2)cc1 (stereo unspecified) [4-(4-Imidazol-1-yl-phenyl)-2,6-dimethyl-1,4-dihydro-pyridine-3,5-dicarboxylic acid diethyl ester]
